# Earlier results as cited in article PMC9516332 (Frontiers in Oncology, 2022).
# Where two headings read alike, the source gives them in different places.
# Assays:
# Conditions in all cases: cited from earlier work
# [1] = target: T1, panel of 255 wild-type kinases (Homo sapiens, UniProt P36888)
# T1 sequence (P36888 27-993): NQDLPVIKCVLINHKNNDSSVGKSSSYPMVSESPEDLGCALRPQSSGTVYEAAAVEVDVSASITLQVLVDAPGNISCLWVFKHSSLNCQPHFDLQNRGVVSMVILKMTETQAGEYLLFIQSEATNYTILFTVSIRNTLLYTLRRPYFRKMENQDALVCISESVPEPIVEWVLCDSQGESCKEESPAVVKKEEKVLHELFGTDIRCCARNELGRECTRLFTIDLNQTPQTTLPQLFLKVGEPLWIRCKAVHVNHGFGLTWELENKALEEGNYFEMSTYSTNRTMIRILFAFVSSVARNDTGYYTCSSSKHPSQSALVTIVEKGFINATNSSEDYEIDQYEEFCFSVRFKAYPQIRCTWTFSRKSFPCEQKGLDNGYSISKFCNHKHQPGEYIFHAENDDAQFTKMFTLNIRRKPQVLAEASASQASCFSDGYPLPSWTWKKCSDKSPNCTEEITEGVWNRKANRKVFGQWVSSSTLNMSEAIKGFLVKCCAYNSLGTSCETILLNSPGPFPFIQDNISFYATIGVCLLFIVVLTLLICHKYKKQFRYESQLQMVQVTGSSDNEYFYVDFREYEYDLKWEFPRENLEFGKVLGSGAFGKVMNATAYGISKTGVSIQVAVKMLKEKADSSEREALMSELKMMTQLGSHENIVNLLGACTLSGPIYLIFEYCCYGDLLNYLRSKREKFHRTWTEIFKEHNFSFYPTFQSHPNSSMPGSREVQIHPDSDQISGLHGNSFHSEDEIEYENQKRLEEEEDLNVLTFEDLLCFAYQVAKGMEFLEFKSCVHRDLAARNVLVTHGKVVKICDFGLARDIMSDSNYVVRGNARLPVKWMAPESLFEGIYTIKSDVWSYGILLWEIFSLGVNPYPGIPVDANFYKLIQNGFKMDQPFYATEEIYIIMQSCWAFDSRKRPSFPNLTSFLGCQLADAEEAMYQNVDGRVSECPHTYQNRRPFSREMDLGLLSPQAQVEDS
# [2] = target: T2, panel of 255 wild-type kinases (Homo sapiens, UniProt Q13976)
# T2 sequence (Q13976 1-671): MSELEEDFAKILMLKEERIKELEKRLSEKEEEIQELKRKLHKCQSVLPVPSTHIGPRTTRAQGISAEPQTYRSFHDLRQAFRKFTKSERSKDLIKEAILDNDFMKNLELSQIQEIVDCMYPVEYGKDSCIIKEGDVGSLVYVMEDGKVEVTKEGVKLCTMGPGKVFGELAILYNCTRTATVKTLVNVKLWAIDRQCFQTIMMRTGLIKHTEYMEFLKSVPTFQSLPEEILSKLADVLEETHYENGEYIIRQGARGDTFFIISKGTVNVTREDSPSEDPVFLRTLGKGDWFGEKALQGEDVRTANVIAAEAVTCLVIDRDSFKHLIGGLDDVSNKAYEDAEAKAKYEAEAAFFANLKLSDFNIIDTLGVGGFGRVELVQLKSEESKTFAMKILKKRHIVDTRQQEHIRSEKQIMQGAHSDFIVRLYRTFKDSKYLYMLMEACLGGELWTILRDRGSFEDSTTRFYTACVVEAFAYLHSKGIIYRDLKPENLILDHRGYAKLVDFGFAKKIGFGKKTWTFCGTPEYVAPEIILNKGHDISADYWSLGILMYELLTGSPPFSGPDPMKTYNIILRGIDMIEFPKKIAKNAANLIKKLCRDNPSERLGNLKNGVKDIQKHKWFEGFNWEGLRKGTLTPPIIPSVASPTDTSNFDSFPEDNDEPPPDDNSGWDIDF
# [3] = target: panel of 255 wild-type kinases (Homo sapiens, UniProt P23443)
# [4] = target: panel of 255 wild-type kinases (Homo sapiens, UniProt Q8N4C8)
# [5] = target: panel of 255 wild-type kinases (Homo sapiens, UniProt Q00535)
# [6] = target: panel of 255 wild-type kinases (Homo sapiens, UniProt Q04912)
# [7] = target: panel of 255 wild-type kinases (Homo sapiens, UniProt P08922)
# [8] = target: panel of 255 wild-type kinases (Homo sapiens, UniProt P24941)
# [9] = target: panel of 255 wild-type kinases (Homo sapiens, UniProt P19525)
# [10] = kinase FLT3, 1 µmol/L single concentration, ref DOI: 10.1158/1535-7163.MCT-18-0877
# [11] = kinase PGK, 1 µmol/L single concentration, ref DOI: 10.1158/1535-7163.MCT-18-0877
# [12] = p70S6K, 1 µmol/L single concentration, ref DOI: 10.1158/1535-7163.MCT-18-0877
# [13] = MINK, 1 µmol/L single concentration, ref DOI: 10.1158/1535-7163.MCT-18-0877
# [14] = CDK5/p25 kinase assay, 1 µmol/L single concentration, ref DOI: 10.1158/1535-7163.MCT-18-0877
# [15] = kinase RON, 1 µmol/L single concentration, ref DOI: 10.1158/1535-7163.MCT-18-0877
# [16] = kinase ROS, 1 µmol/L single concentration, ref DOI: 10.1158/1535-7163.MCT-18-0877
# [17] = CDK2/CycA2 kinase assay, 1 µmol/L single concentration, ref DOI: 10.1158/1535-7163.MCT-18-0877
# [18] = CDK2/CycE1 kinase assay, 1 µmol/L single concentration, ref DOI: 10.1158/1535-7163.MCT-18-0877
# [19] = kinase PKR, 1 µmol/L single concentration, ref DOI: 10.1158/1535-7163.MCT-18-0877
# [20] = kinase PGK, 1 µmol/L single concentration, ref DOI: 10.1371/journal.pone.0092146
# [21] = p70S6K, 1 µmol/L single concentration, ref DOI: 10.1371/journal.pone.0092146
# [22] = MINK, 1 µmol/L single concentration, ref DOI: 10.1371/journal.pone.0092146
# [23] = CDK5/p25 kinase assay, 1 µmol/L single concentration, ref DOI: 10.1371/journal.pone.0092146
# [24] = CDK2/CycA2 kinase assay, 1 µmol/L single concentration, ref DOI: 10.1371/journal.pone.0092146
# [25] = CDK2/CycE1 kinase assay, 1 µmol/L single concentration, ref DOI: 10.1371/journal.pone.0092146
# [26] = kinase PKR, 1 µmol/L single concentration, ref DOI: 10.1371/journal.pone.0092146
# [27] = kinase FLT3, 1 µmol/L single concentration, ref DOI: 10.1371/journal.pone.0092146
# [28] = kinase RON, 1 µmol/L single concentration, ref DOI: 10.1371/journal.pone.0092146
# [29] = kinase ROS, 1 µmol/L single concentration, ref DOI: 10.1371/journal.pone.0092146
Structure (SMILES),"%-inhibition at 1 µmol/L, FLT3 [1, 10] [%]","%-inhibition at 1 µmol/L, PGK [2, 11] [%]","%-inhibition, p70S6K [3, 12] [%]","%-inhibition, MINK [4, 13] [%]","%-inhibition CDK5/p25 [5, 14] [%]","%-inhibition at 1 µmol/L, RON [6, 15] [%]","%-inhibition at 1 µmol/L, ROS [7, 16] [%]","%-inhibition CDK2/CycA2 [8, 17] [%]","%-inhibition CDK2/CycE1 [8, 18] [%]","%-inhibition at 1 µmol/L, PKR [9, 19] [%]",also measured
CC#CC(=O)N1CCC[C@H]1c1nc(-c2ccc(C(=O)Nc3ccccn3)cc2)c2c(N)nccn12 [acalabrutinib],3.27,-3.7,-14,-1.13,-19,8,1.79,-5,-5,7,–
CCc1cc2c(cc1N1CCC(N3CCOCC3)CC1)C(C)(C)c1[nH]c3cc(C#N)ccc3c1C2=O [alectinib],78,-1.53,2.73,–,-12,10,14,5.68,-2.55,5.33,–
COc1cc(N2CCC(N3CCN(C)CC3)CC2)ccc1Nc1ncc(Cl)c(Nc2ccccc2P(C)(C)=O)n1 [brigatinib],–,–,–,–,–,–,–,–,–,–,"%-inhibition at 1 µmol/L, FLT3 [1]: 101%; %-inhibition at 1 µmol/L, PGK [2]: 60%; %-inhibition, p70S6K [3]: 33%; %-inhibition, MINK [4]: 6%; %-inhibition CDK5/p25 [5]: 40%; %-inhibition at 1 µmol/L, RON [6]: 18%; %-inhibition at 1 µmol/L, ROS [7]: 101%; %-inhibition CDK2/CycA2 [8]: 53%; %-inhibition CDK2/CycE1 [8]: 30%; %-inhibition at 1 µmol/L, PKR [9]: 14%"
Cc1cc(Nc2ncc(Cl)c(Nc3ccccc3S(=O)(=O)C(C)C)n2)c(OC(C)C)cc1C1CCNCC1 [ceritinib],–,38,16,1.46,-22,9,101,-5.32,-7.57,-1,–
O=C(c1ccc(F)c(F)c1Nc1ccc(I)cc1F)N1CC(O)([C@@H]2CCCCN2)C1 [cobimetinib],-0.393,2.54,19,-2.67,-7,-9,3,-8,-8,0.867,–
C[C@@H](Oc1cc(-c2cnn(C3CCNCC3)c2)cnc1N)c1c(Cl)ccc(F)c1Cl [crizotinib],–,–,–,–,–,–,–,–,–,–,"%-inhibition at 1 µmol/L, PGK [2, 20]: -2.6%; %-inhibition, p70S6K [3, 21]: 40%; %-inhibition, MINK [4, 22]: 0%; %-inhibition CDK5/p25 [5, 23]: -8%; %-inhibition CDK2/CycA2 [8, 24]: 3%; %-inhibition CDK2/CycE1 [8, 25]: -14%; %-inhibition at 1 µmol/L, PKR [9, 26]: 6%"
CC(C)(C)c1nc(-c2cccc(NS(=O)(=O)c3c(F)cccc3F)c2F)c(-c2ccnc(N)n2)s1 [dabrafenib],–,–,–,–,–,–,–,–,–,–,"%-inhibition at 1 µmol/L, FLT3 [1, 27]: 41%; %-inhibition, MINK [4, 22]: -0.772%; %-inhibition CDK5/p25 [5, 23]: 22%; %-inhibition at 1 µmol/L, RON [6, 28]: 37%; %-inhibition at 1 µmol/L, ROS [7, 29]: 8.55%"
C=CC(=O)N1CCC[C@@H](n2nc(-c3ccc(Oc4ccccc4)cc3)c3c(N)ncnc32)C1 [ibrutinib],63,1.89,19,-6.41,-5,7,5,-12,-8,5.63,–
CO[C@@H]1[C@H](N(C)C(=O)c2ccccc2)C[C@H]2O[C@]1(C)n1c3ccccc3c3c4c(c5c6ccccc6n2c5c31)C(=O)NC4 [midostaurin],–,98,82,88,–,22,–,52,22,32,"%-inhibition at 1 µmol/L, ROS [7]: 102%"
C=CC(=O)Nc1cc(Nc2nccc(-c3cn(C)c4ccccc34)n2)c(OC)cc1N(C)CCN(C)C [osimertinib],84,3.61,21,21,-0.719,5.69,101,-6,24,6,–
CC(=O)Nc1cccc(-n2c(=O)n(C3CC3)c(=O)c3c(Nc4ccc(I)cc4F)n(C)c(=O)c(C)c32)c1 [trametinib],–,–,–,–,–,–,–,–,–,–,"%-inhibition at 1 µmol/L, FLT3 [1, 27]: 20%; %-inhibition at 1 µmol/L, PGK [2, 20]: -1.31%; %-inhibition, p70S6K [3, 21]: -1.39%; %-inhibition, MINK [4, 22]: -1.8%; %-inhibition CDK5/p25 [5, 23]: 19%; %-inhibition at 1 µmol/L, RON [6, 28]: -6.44%; %-inhibition at 1 µmol/L, ROS [7, 29]: -0.611%; %-inhibition CDK2/CycA2 [8, 24]: 24%; %-inhibition CDK2/CycE1 [8, 25]: 2.59%; %-inhibition at 1 µmol/L, PKR [9, 26]: 1.13%"
